Assays:
5-HT2A receptors = 5-HT2A receptors (Homo sapiens, UniProt P28223); conditions: cited from earlier work
5-HT2B receptors = 5-HT2B receptors (Homo sapiens, UniProt P41595); conditions: cited from earlier work
human 5-HT2C receptors = target: T1, human 5-HT2C receptors (Homo sapiens, UniProt P28335); conditions: cited from earlier work
T1 sequence (P28335 33-458): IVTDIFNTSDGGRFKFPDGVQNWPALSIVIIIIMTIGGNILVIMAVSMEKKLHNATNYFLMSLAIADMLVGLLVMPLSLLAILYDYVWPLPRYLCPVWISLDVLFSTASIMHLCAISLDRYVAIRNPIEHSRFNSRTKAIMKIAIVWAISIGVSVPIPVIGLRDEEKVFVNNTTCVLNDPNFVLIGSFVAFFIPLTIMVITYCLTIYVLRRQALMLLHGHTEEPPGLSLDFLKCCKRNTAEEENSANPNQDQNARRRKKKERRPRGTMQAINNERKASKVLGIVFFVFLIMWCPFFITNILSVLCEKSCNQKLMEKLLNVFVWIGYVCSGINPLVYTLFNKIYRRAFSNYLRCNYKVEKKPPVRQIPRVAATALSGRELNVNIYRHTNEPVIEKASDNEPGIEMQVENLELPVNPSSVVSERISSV

[1] = cited from earlier work
norepinephrine = assay: 56-day placebo-controlled study: 24 h urine norepinephrine; assay type: in vivo, human; conditions: 10 mg BID
Experimental: (§1) A fifty-six-day, double-blind, randomized, placebo-controlled, parallel-group study was conducted to assess the effects of lorcaserin hydrochloride administration to overweight and obese male and female patients. The study was completed according to the guidelines of Good Clinical Practice and was conducted in full compliance with the World Medical Association Declaration of Helsinki and its most recent amendments.
(§2) Fifty-seven overweight or obese adult male and female subjects aged 18 to 65 years inclusive were randomized to one of two treatment groups: placebo or lorcaserin hydrochloride (10 mg) twice-a-day (BID) for 56 days. The majority of subjects were female (68.4%) and Caucasian (63.2%). […]
(§3) The analyses of all efficacy variables used the Modified Intent-to-Treat Population (MITT) population. Patient data were analyzed according to the treatment assigned at randomization, regardless of the treatment received during the course of the trial. […] Compliance was assessed by the number of remaining tablets. […]
(§4) Mean concentrations and mean change from baseline in 24 h urine epinephrine and norepinephrine at Day 7 and Day 56 were assessed. […] Epinephrine was below the limit of quantitation in 44 of 55 available patient samples at Day 7 and 33 of 52 available samples at Day 56. […]

[2] = 56-day placebo-controlled study of lorcaserin hydrochloride: body weight; assay type: in vivo, human; conditions: for Bodyweight, Mean: lorcaserin hydrochloride 10 mg BID oral
Experimental: as §1
(§5) Fifty-seven overweight or obese adult male and female subjects aged 18 to 65 years inclusive were randomized to one of two treatment groups: placebo or lorcaserin hydrochloride (10 mg) twice-a-day (BID) for 56 days. The majority of subjects were female (68.4%) and Caucasian (63.2%). […] Patients were required to participate in the Arena Healthy Lifestyle Program®, designed specifically for this study, which included a 600 kcal deficit diet and 30 minutes of moderate exercise per day.
(§6) Each subject underwent screening procedures within 28 days or sooner, prior to dosing on Day 1, over 3 screening visits (Days −28, −14, and −7). This was followed by an initial inpatient period of 4 days, a 3-day outpatient period, a second 4-day inpatient period, a second outpatient period over 45 days which included 7 visits, and a final 3-day inpatient period. Fifty-three subjects completed the study.
(§7) Lorcaserin formulation is composed of white tablets containing lorcaserin (active) and excipients (silicified microcrystalline cellulose NF, hydroxypropyl cellulose NF, croscarmellose sodium NF, magnesium stearate NF and Opadry® II white). The placebo is composed of white tablets containing excipients.
(§8) All enrolled patients received two oral doses per day (one dose in the morning prior to breakfast and one dose in the evening prior to dinner) of study medication (lorcaserin or placebo) for 56 days. Dosing was performed in a double-blind manner so that neither the patient nor the Investigator knew which treatment had been assigned. Patients were told to take the study medication each morning and evening approximately 60 minutes before breakfast and dinner and were encouraged to take the study medication with an adequate amount of water (8 oz or 240 mL). Patients were asked not to crush, break, chew, or dissolve the tablets.
Patients were required to fast for 10 hours prior to each study visit that requires a blood sample for clinical laboratory tests. Participants were weighed (in duplicate) at each study visit wearing a hospital gown. Efforts were made to schedule study visits prior to 10:00 a.m. to capture the fasted body weight and to reduce the variability in body weight normally observed throughout the day. Weights were measured in kilograms (kg).
The analyses of all efficacy variables used the Modified Intent-to-Treat Population (MITT) population. Patient data were analyzed according to the treatment assigned at randomization, regardless of the treatment received during the course of the trial. Inclusion was dependent on the presence of a baseline measurement, consumption of at least one study dose, and a post-randomization measurement. Patients were instructed to bring their unused study drug with them to each study visit. Compliance was assessed by the number of remaining tablets. Change from baseline or percent change from baseline is defined as the change from Day 1 (randomization) measurement. If the Day 1 measurement was not available, the last non-missing pre-randomization measurement was used as the baseline value, otherwise baseline was considered missing. […]

[3] = 56-day placebo-controlled study: safety (adverse events, ECG, BDI-II); assay type: in vivo, human
Experimental: as §1, §5, §6, §7, §8
A 12-lead ECG was performed at screening (baseline), and during the exit visit (Day 57). […] Individual subjects experienced abnormalities at all time points including baseline. […] None of the abnormalities were clinically significant.
Serial assessments of depression were performed during the study at Days −2, +6 and +55 (Beck Depression Inventory-II (BDI-II)).

epinephrine = assay: 56-day placebo-controlled study: 24 h urine epinephrine; assay type: in vivo, human; conditions: after 7 or 56 days of treatment; small number of evaluable samples
Experimental: as §1, §2, §3, §4

[4] = phase 3 program, up to two years
[5] = lorcaserin group, 10 mg BID, 56 days

Sequence of 5-HT2A receptors (P28223 whole entry): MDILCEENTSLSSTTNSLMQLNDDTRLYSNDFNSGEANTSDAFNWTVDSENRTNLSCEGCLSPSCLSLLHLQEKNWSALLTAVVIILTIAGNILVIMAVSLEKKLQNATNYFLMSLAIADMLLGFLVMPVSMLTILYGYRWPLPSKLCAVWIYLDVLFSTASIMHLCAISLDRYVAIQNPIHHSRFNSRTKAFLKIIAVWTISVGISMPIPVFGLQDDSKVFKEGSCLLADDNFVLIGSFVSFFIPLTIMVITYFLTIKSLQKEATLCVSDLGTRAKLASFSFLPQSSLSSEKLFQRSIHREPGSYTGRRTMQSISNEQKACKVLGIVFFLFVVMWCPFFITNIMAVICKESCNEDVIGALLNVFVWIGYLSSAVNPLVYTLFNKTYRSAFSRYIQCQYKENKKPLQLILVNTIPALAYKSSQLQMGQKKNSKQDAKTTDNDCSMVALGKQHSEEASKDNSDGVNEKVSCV
Sequence of 5-HT2B receptors (P41595 whole entry): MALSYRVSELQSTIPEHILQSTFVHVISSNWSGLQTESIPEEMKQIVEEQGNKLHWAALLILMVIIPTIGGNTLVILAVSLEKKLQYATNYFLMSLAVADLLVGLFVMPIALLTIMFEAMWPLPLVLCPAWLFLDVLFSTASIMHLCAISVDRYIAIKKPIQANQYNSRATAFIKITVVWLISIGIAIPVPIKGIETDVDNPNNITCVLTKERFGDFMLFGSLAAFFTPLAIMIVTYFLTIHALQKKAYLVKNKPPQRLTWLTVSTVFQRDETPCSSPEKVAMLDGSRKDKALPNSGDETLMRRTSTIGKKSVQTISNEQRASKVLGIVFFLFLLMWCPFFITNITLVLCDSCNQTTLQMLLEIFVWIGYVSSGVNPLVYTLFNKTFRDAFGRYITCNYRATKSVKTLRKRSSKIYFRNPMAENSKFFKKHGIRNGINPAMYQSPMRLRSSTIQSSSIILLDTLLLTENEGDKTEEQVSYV

## CN(C)[C@@H]1Cc2ccccc2[C@@H](c2ccccc2)C1 [(1R,3S)-(−)-trans-1-phenyl-3-dimethylamino-1,2,3,4-tetrahydronaphthalene]
5-HT2A receptors
  activity at 5-HT2A receptors: antagonist
5-HT2B receptors
  activity at 5-HT2B receptors: antagonist
Human 5-HT2C receptors
  activity at human 5-HT2C receptors: agonist

## C[C@H]1CNCCc2ccc(Cl)cc21 [Lorcaserin, (R)-8-Chloro-1-methyl-2,3,4,5-tetrahydro-1H-3-benzazepine]
[1]; first phase 3 trial
  excess body weight lost (normal BMI of 25): about one-third
[1]; [4]
  patients achieving at least 5% weight loss: About two-thirds
  patients achieving at least 10% weight loss: over one-third
[1]; phase 3 program
  average weight lost, of their weight: about 8%
  depression or suicidal ideation: no signal
  heart rate and blood pressure: went down
  risk of cardiac valvulopathy: did not increase the risk
[1]; second phase 3 trial
  average weight loss, top quartile of patients: 35 pounds
  average weight loss, top quartile of patients, of body weight: 16%
norepinephrine; after 7 days (p<0.0001)
  24 h norepinephrine excretion in urine: significant decrease
norepinephrine; after 56 days (p<0.001)
  24 h norepinephrine excretion in urine: significant decrease
[2]; Day 1 (baseline), overweight/obese patients
  Bodyweight, Mean: 96.59 kg
[2]; Day 6
  Bodyweight, Mean: 96.67 kg
[2]; Day 55
  Bodyweight, Mean: 93.84 kg
[2]; at 6 days, 10 mg BID
  weight loss: No significant weight loss
[2]; at 55 days, 10 mg BID
  weight loss as compared to placebo: Significantly greater weight loss
[3]; 10 mg BID, 56 days
  deaths or serious adverse events: No deaths or serious adverse events occurred
  early terminations due to AEs: no early terminations due to AEs
  incidence of depression related adverse events: did not increase
  tolerability: generally well tolerated
[3]; Days -2, +6 and +55
  Beck Depression Inventory-II (BDI-II), difference between lorcaserin and placebo groups: No meaningful differences
[3]; lorcaserin group (29 randomized), 10 mg BID, 56 days
  Headache, subjects with at least 1 event: 11 subjects
[3]; [5]
  Dizziness, subjects reporting: 3 subjects
  Headache, rate of subjects with at least 1 event: 37.9%
[3]; screening vs exit visit (Day 57)
  12-lead ECG effects: no apparent treatment-related effects on ECG
epinephrine
  24 h epinephrine excretion: no change

— patent US20130267500A1, “5-HT2C RECEPTOR AGONISTS IN THE TREATMENT OF DISORDERS AMELIORATED BY REDUCTION OF NORE[…]” (Arena Pharmaceuticals, Inc., priority 2010, published 2013)
